Source: ChEMBL document CHEMBL1150701, “A direct bioautographic tlc assay for compounds possessing antibacterial activity” (1987)
Activity calls are given as the source filed them. No cut-off for these calls is given here.

Experiments:
[1] = tested on: Bacillus subtilis; test: Antibacterial activity against Bacillus subtilis ATCC 6633 after 48 hrs by silica gel plate-based INT-formazan method; format: functional
[2] = tested on: Escherichia coli; test: Antibacterial activity against Escherichia coli ATCC 25922 after 48 hrs by silica gel plate-based INT-formazan method; format: functional
[3] = tested on: Bacillus subtilis; test: Antibacterial activity against Bacillus subtilis ATCC 6633 at 5 ug after 48 hrs by silica gel plate-based INT-formazan method; format: functional, organism-based
[4] = tested on: Escherichia coli; test: Antibacterial activity against Escherichia coli ATCC 25922 at 5 ug after 48 hrs by silica gel plate-based INT-formazan method; format: functional, organism-based

OC[C@H]1O[C@@](CO)(O[C@H]2O[C@H](CO)[C@@H](O)[C@H](O)[C@H]2O)[C@@H](O)[C@@H]1O [SUCROSE]
MIC [1]: >20 µg | MIC [2]: >20 µg

CC[C@@]1(O)C(=O)OCc2c1cc1n(c2=O)Cc2cc3ccccc3nc2-1
Activity [3]: inactive | Activity [4]: inactive

CC1(C)S[C@@H]2[C@H](NC(=O)COc3ccccc3)C(=O)N2[C@H]1C(=O)O [PENICILLIN V]
MIC [1]: 0.005 µg | MIC [2]: >2 µg

O=C(O)/C=C/c1ccc(O)cc1 [COUMARIC ACID]
MIC [1]: 2.5 µg | MIC [2]: 5 µg

CC[C@@]1(O)C(=O)OCc2c1cc1n(c2=O)Cc2cc3cc(O)ccc3nc2-1
Activity [3]: inactive | Activity [4]: inactive

COc1cc([C@@H]2c3cc4c(c(O)c3C[C@H]3COC(=O)[C@@H]32)OCO4)cc(OC)c1O
Activity [3]: Active | Activity [4]: Active

CC1=CC(=O)[C@@H](O)[C@]2(C)[C@H]3[C@@]4(O)OC[C@@]35[C@@H](C[C@@H]12)OC(=O)C[C@H]5[C@@H](C)[C@H]4O
Activity [3]: inactive | Activity [4]: inactive

CC1=CC(=O)[C@@H](O)[C@]2(C)[C@H]3[C@]4(O)OC[C@]35[C@H]([C@@H](C)[C@H]4O)[C@@H](O)C(=O)O[C@@H]5C[C@@H]12
Activity [3]: inactive | Activity [4]: inactive

CC[C@H](/C=C/[C@@H](C)[C@H]1CC[C@H]2[C@@H]3CC=C4C[C@@H](O)CC[C@]4(C)[C@H]3CC[C@]12C)C(C)C [STIGMASTEROL]
MIC [1]: >20 µg | MIC [2]: >20 µg

COc1cc([C@@H]2c3cc4c(cc3C[C@H]3COC(=O)[C@@H]32)OCO4)cc(OC)c1O
Activity [3]: inactive | Activity [4]: inactive

O=C(N[C@H](CO)[C@H](O)c1ccc([N+](=O)[O-])cc1)C(Cl)Cl [CHLORAMPHENICOL]
MIC [1]: 0.01 µg | MIC [2]: 0.02 µg

CC[C@H](CC[C@@H](C)[C@H]1CC[C@H]2[C@@H]3CC=C4C[C@@H](O)CC[C@]4(C)[C@H]3CC[C@]12C)C(C)C [BETA-SITOSTEROL]
MIC [1]: >20 µg | MIC [2]: >20 µg

CC[C@@]1(O)C(=O)OCc2c1cc1n(c2=O)Cc2cc3c(OC)cccc3nc2-1
Activity [3]: inactive | Activity [4]: inactive

COc1cc([C@@H]2c3cc4c(c(O)c3C[C@H]3COC(=O)[C@@H]32)OCO4)cc(OC)c1OC
Activity [3]: inactive | Activity [4]: inactive

COc1cc([C@@H]2c3cc4c(cc3[C@H](O)[C@H]3COC(=O)[C@H]23)OCO4)cc(OC)c1OC
Activity [3]: Active | Activity [4]: Active

COC(=O)[C@]12OC[C@]34[C@H]([C@@H](O)[C@@H]1O)[C@@]1(C)[C@H](O)C(=O)C=C(C)[C@@H]1C[C@H]3OC(=O)[C@H](OC(=O)CC(C)C)[C@@H]24
Activity [3]: inactive | Activity [4]: inactive

O=c1c(O)c(-c2ccc(O)c(O)c2)oc2cc(O)cc(O)c12 [QUERCETIN]
MIC [1]: 5 µg | MIC [2]: 5 µg

CC(=O)O[C@H]1C(=O)O[C@@H]2C[C@H]3C(C)=CC(=O)[C@@H](O)[C@]3(C)[C@H]3[C@]4(O)OC[C@]32[C@@H]1[C@@H](C)[C@H]4O
Activity [3]: inactive | Activity [4]: inactive

CCCCCCCCCCCCCCCC(=O)O [PALMITIC ACID]
MIC [1]: >20 µg | MIC [2]: >20 µg
